From patent US20260242478A1, “ANTIBODIES FOR TARGETING PSMA AND CD28 AND USES THEREOF” (Janux Therapeutics, Inc., priority 2023, published 2026)

What follows are substances tested on anti-CD28 scFv (assay: Panning ELISA of clonal phage, anti-CD28 scFv, with or without CD28 soluble protein (Peptide-9 library)). Details: Peptide-9 library, background (no anti-CD28 scFv).
Assay type: binding
Procedure: Clonal phage were harvested as crude supernatants and screened via standard enzyme linked immunosorbent assays (ELISAs). […] Prior to the addition of clonal phage, wells were incubated with blocking buffer and CD28 soluble protein or blocking buffer alone. Without washing or aspirating, clonal phage supernatants were then added to the wells and incubated for a short time. Wells were then washed followed by detection of bound phage using a horse radish peroxidase conjugated anti-M13 antibody. Clonal phage of interest were then sent for sequence analysis.

Chain of anti-CD28 scFv (as listed by the source): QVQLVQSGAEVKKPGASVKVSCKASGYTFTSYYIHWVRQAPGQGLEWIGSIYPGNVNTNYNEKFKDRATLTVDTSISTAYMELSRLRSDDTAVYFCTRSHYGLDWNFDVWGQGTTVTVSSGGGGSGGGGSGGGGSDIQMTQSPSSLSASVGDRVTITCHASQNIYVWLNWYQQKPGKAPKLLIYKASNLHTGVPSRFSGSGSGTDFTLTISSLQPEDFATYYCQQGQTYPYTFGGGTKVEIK

Substance	Background signal
Phage-400 (MHWCPTYMWSECFA)	0.070
Phage-401 (MDWCPLDMWVLCFA)	0.085
Phage-402 (MDWCPRHMWHECFH)	0.067
Phage-403 (MSWCPWDMWNECFA)	0.069
Phage-404 (MDWCPRDMWTSCFN)	0,100
Phage-405 (MDWCPMSMWAFCFD)	0.102
Phage-406 (MNWCPIDMWTECFN)	0.245
Phage-407 (MNWCPIHMWNQCFA)	0.085
Phage-408 (MFWCPKDMWAECFA)	0.099
Phage-409 (LHWCPITMWTYCYY)	0.229
Phage-410 (IDWCPRYMWHECFF)	0.098
Phage-411 (MSWCPRFMWHECFN)	0.081
Phage-412 (QHWCPRDMWNDCYA)	0.066
Phage-413 (MDWCPSDMWSNCFN)	0.070
Phage-414 (LYWCPRDMWAYCYS)	0.068
Phage-415 (MDWCPMYMWHKCFH)	0.099
Phage-417 (IYWCPTAMWNRCSA)	0.086
Phage-418 (MYWCPKYMWSECFA)	0.072
Phage-419 (VDWCPAHMWNECYN)	0.208
Phage-420 (MFWCPSTMWNRCFD)	0.063
Phage-422 (MYWCPINMWDYCYA)	0.122
Phage-423 (INLCPTPMWNRCWL)	0.119
Phage-424 (ITQCPSTMWNRCSV)	0.067
Phage-425 (MDLCPTAMWNRCFY)	0.063
Phage-426 (MFLCPSAMWNRCFY)	0.069

Substance	Background signal
Phage-427 (VILCPTTMWNRCFH)	0,100
Phage-428 (MNWCPSTMWNRCLT)	0.067
Phage-430 (IHLCHWVPWIKCSH)	2.516
Phage-431 (MAWCPADQWHECFN)	0.076
Phage-432 (IDWCPIIQGLPCFA)	0.058
Phage-433 (MAWCPWAQFDECLA)	0.073
Phage-434 (IVWCPTTQWNRCAT)	0.113
Phage-435 (MDWCPRDRWVDCYA)	0.157
Phage-436 (MDWCPRDRWADCFN)	0.063
Phage-437 (MDWCPVDRWADCFN)	0.071
Phage-438 (MDWCPMSRWAFCFD)	0.071
Phage-439 (MDWCPRDRWDVCFA)	0.073
Phage-440 (MDWCPRDRWVDCFN)	0.106
Phage-441 (MDWCPRDRWDDCFF)	0.114
Phage-442 (IYWCPIDRWNDCYN)	0.177
Phage-443 (MDWCPMTRWNDCYF)	0.081
Phage-444 (VNQCTRYRWAECLN)	0.465
Phage-445 (MDWCPRARWHDCFF)	0.097
Phage-446 (MDWCPRDRWDDCFN)	0.069
Phage-448 (MAWCPWASFDECLA)	0.104
Phage-449 (MVDCPLISFDECLA)	0.246
Phage-450 (EDWCPTDVWPYCFS)	0.100
Phage-451 (MDWCPRFWWHECYA)	0.246
Phage-452 (MDWCPRDWWHMCFN)	0.100
Phage-453 (MDWCPSDYWYVCFA)	0.065

Same assay, conditions: background (no anti-CD28 scFv)

Substance	Background signal
Phage-309 (MDWCPMFLWHECFN)	0.170
Phage-310 (MDWCPRDLWDECFN)	0.066
Phage-311 (MDWCPRDLWYQCFN)	0.069
Phage-313 (MDWCPRSLWNYCFN)	0.076
Phage-314 (MDWCPIHLWNECFN)	0.074
Phage-315 (MDWCPTYLWHVCFS)	0.089
Phage-316 (MDWCPRSLWNYCFA)	0.067
Phage-317 (MDWCPRHLWHECFT)	0.103
Phage-318 (MDWCPMFLWDECFN)	0.132
Phage-319 (MSWCPRDLWHLCFF)	0.077
Phage-320 (MDWCPTYLWNECFN)	0.120
Phage-321 (MDWCPRDLWYVCFA)	0.095
Phage-322 (MDWCPRHLWIECFN)	0.339
Phage-323 (MDWCPTYLWNVCFA)	0.085
Phage-324 (MDWCPRHLWYECFS)	0.216
Phage-325 (MDWCPAYLWDECFA)	0.096
Phage-326 (MFWCPITLWNECFN)	0.075
Phage-327 (MHWCPRDLWHVCFN)	0.071
Phage-328 (MDWCPRALWDHCFN)	0.323
Phage-329 (MDWCPRALWNVCFA)	0.071
Phage-330 (MDWCPRFLWDVCFN)	0.100

Substance	Background signal
Phage-331 (MDWCPRHLWDECFY)	0.098
Phage-332 (IDWCPRALWDACLA)	0.269
Phage-333 (MDWCPTDLWHECFA)	0.078
Phage-334 (MDWCPRYLWDECFS)	0.069
Phage-335 (MDWCPRFLWDYCFA)	0.146
Phage-336 (MDWCPRDLWNWCFN)	0.139
Phage-337 (MDWCPKPLWHVCFA)	0.069
Phage-338 (MDWCPRFLWNECFY)	0.143
Phage-339 (MDWCPRTLWDQCFF)	0.088
Phage-340 (MSWCPIDLWSECFA)	0.072
Phage-341 (MDWCPRHLWDECFN)	0.084
Phage-342 (MDWCPRNLWHECFA)	0.067
Phage-343 (MDWCPRDLWTQCFF)	0.065
Phage-344 (MDWCPRHLWVHCFS)	0.096
Phage-345 (MDFCPRFLWHECFN)	0.063
Phage-346 (MDWCPRHLWHACFS)	0.073
Phage-347 (MDWCPLFLWDQCFN)	0.116
Phage-348 (MAWCPWYLWDECFN)	0.200
Phage-349 (LDWCPRHLWALCFN)	0.073
Phage-350 (MDWCPWFLWNECFN)	0.158
Phage-351 (MDWCPMNLWHECFA)	0.080

Substance	Background signal
Phage-352 (MDWCPIHLWYECFN)	0.080
Phage-353 (IDWCPLHLWHECYH)	0.067
Phage-354 (MDWCPRYLWLECFN)	0.083
Phage-356 (MDWCPMYLWDECFF)	0.082
Phage-357 (MDWCPRLLWHECFN)	0.071
Phage-359 (MDWCPRPLWHECFA)	0.063
Phage-360 (MDWCPMFLWHECFS)	0.092
Phage-361 (MHWCPRHLWSECFN)	0.165
Phage-362 (MDWCPRILWHECFS)	0.064
Phage-363 (MNWCPMHLWAECFN)	0.087
Phage-364 (MDWCPRSLWAQCFY)	0.067
Phage-365 (MDWCPSYLWPVCFN)	0.079
Phage-366 (MHWCPLYLWDECFY)	0.153
Phage-367 (MDWCPSFLWYECFN)	0.063
Phage-368 (MSWCPPYLWTVCYN)	0.176
Phage-369 (MHWCPRDLWYECFA)	0.072
Phage-370 (MTWCPAYLWHECFN)	0.086
Phage-371 (MAWCPRYLWAECFF)	0.510
Phage-372 (MDWCPRYLWVDCFA)	0.095
Phage-373 (MDWCPRILWSDCFN)	0.082
Phage-374 (MAWCPLDLWDKCFY)	0.079

Substance	Background signal
Phage-375 (MNWCPRALWHECFL)	0.085
Phage-376 (MDWCPRHLWTYCFH)	0.109
Phage-377 (MDWCPFDLWLECFN)	0.087
Phage-378 (MHWCPLHLWNECFA)	0.065
Phage-379 (MDWCPRNLWAECFS)	0.061
Phage-380 (MDYCPSYLWHECFA)	0.065
Phage-381 (MAWCPRILWHQCFN)	0.113
Phage-382 (ITWCPTSLWNRCLV)	0.077
Phage-383 (LAGCQRDLATVCVI)	0.068
Phage-384 (IMWCPTSLWNRCVT)	0.104
Phage-386 (NHWCPTTLWNRCVA)	0.293
Phage-387 (MDWCPRHLWLECFN)	0.064
Phage-388 (MDWCPRFMWNFCFF)	2.200
Phage-391 (MDWCPFDMWADCFF)	0.063
Phage-393 (MDWCPRDMWFECFN)	0.069
Phage-394 (MDWCPRYMWSDCFF)	0.082
Phage-395 (MDWCPKDMWAECFN)	0.083
Phage-396 (TDWCPRDMWYLCFN)	0.082
Phage-397 (MDWCPRAMWDYCFY)	0.123
Phage-398 (MDWCPRNMWNECFF)	0.095
Phage-399 (MDWCPRSMWDSCFN)	0.332
